Test results reported in patent US20260327246A1, “FUSED RING KRAS INHIBITORS FOR TREATING DISEASE” (BLOSSOMHILL THERAPEUTICS, INC., priority 2023, published 2026).
pIC50: −log10 of the molar value.

How the values were obtained:
GP2D (KRAS G12D) = test: Cell Proliferation Assay (CellTiter-Glo 2.0), GP2D; assay type: cell-based; conditions: GP2D (KRAS G12D) cells; 72 hours at 37° C., 5% CO2; read-out: Anti-proliferation IC50, GP2D (KRAS G12D)
Procedure: (§1) Two thousand KRAS mutant cells per well are seeded in 384-well white plate and then treated with indicated compounds for 72 hours at 37° C. and 5% CO2. Cell proliferation is measured using CellTiter-Glo 2.0 luciferase-based ATP detection assay (Promega, Madison, WI) following the manufacturer's protocol. IC50 values are determined using Prism software (GraphPad Software, San Diego, CA).

SW620 (KRAS G12V) = test: Cell Proliferation Assay (CellTiter-Glo 2.0), SW620; assay type: cell-based; conditions: Homo sapiens, SW-620; SW620 (KRAS G12V) cells; 72 hours at 37° C., 5% CO2; read-out: Anti-proliferation IC50, SW620 (KRAS G12V)
Procedure: as §1

Structure (SMILES) | pIC50 (GP2D (KRAS G12D)) | pIC50 (SW620 (KRAS G12V))
C#Cc1c(F)ccc2cc(O)cc(-c3nc4c5c(nc(OC[C@@]67CCCN6C[C@H](F)C7)nc5c3F)N3CCCC[C@H]3C4)c12 [compound 13, 5-ethynyl-6-fluoro-4-((S)-4-fluoro-2-(((2R,7aS)-2-fluorotetrahydro-1H-pyrrolizin-7a(5H)-yl)methoxy)-7,7a,8,9,10,11-hexahydropyrido[1,2-g]pyrimido[4,5,6-de][1,6]naphthyridin-5-yl)naphthalen-2-ol] | 8.41 | 7.41
C#Cc1c(F)ccc2cc(O)cc(-c3nc4c5c(nc(OC[C@@]67CCCN6C[C@H](F)C7)nc5c3F)N3CCOC[C@H]3C4)c12 [compound 18, 5-ethynyl-6-fluoro-4-((R)-4-fluoro-2-(((2R,7aS)-2-fluorotetrahydro-1H-pyrrolizin-7a(5H)-yl)methoxy)-7a,8,10,11-tetrahydro-7H-[1,4]oxazino[4,3-g]pyrimido[4,5,6-de][1,6]naphthyridin-5-yl)naphthalen-2-ol] | 6.91 | 6.89
C#Cc1c(F)ccc2cc(O)cc(-c3nc4c5c(nc(OC[C@@]67CCCN6C[C@H](F)C7)nc5c3F)N3CCCC[C@H]3CC4)c12 [compound 20, 5-ethynyl-6-fluoro-4-[(8aS)-4-fluoro-2-{[(2R,7aS)-2-fluorotetrahydro-1H-pyrrolizin-7a(5H)-yl]methoxy}-8,8a,9,10,11,12-hexahydro-7H-1,3,6,12a-tetraazabenzo[4,5]cyclohepta[1,2,3-de]naphthalen-5-yl]naphthalen-2-ol] | 8.00 | 7.33
C#Cc1c(F)ccc2cc(O)cc(-c3nc4c5c(nc(OC[C@@]67CCCN6C[C@H](F)C7)nc5c3F)N3CCCCC3C=C4)c12 (stereo partly drawn) [compound 21, 5-ethynyl-6-fluoro-4-(4-fluoro-2-{[(2R,7aS)-2-fluorotetrahydro-1H-pyrrolizin-7a(5H)-yl]methoxy}-9,10,11,12-tetrahydro-8aH-1,3,6,12a-tetraazabenzo[4,5]cyclohepta[1,2,3-de]naphthalen-5-yl)naphthalen-2-ol] | 8.54 | 7.70
C#Cc1c(F)ccc2cc(O)cc(-c3nc4c5c(nc(OC[C@@]67CCCN6C[C@H](F)C7)nc5c3F)N3CCCCCC3CC4)c12 (stereo partly drawn) [compound 22] | 7.49 | 6.61
CCc1c(F)ccc2cc(O)cc(-c3nc4c5c(nc(OC[C@@]67CCCN6C[C@H](F)C7)nc5c3F)N3CCCCCC3CC4)c12 (stereo partly drawn) [compound 23, 5-ethyl-6-fluoro-4-(4-fluoro-2-{[(2R,7aS)-2-fluorotetrahydro-1H-pyrrolizin-7a(5H)-yl]methoxy}-7,8,8a,9,10,11,12,13-octahydro-1,3,6,13a-tetraazanaphtho[1,8-ab]heptalen-5-yl)naphthalen-2-ol] | 6.76 | 5.84
C#Cc1c(F)ccc2cc(O)cc(-c3nc4c5c(nc(OCC6(CN(C)C)CC6(F)F)nc5c3F)N3CCCCC3CC4)c12 (stereo not drawn) [compound 24, 4-[2-({1-[(dimethylamino)methyl]-2,2-difluorocyclopropyl}methoxy)-4-fluoro-8,8a,9,10,11,12-hexahydro-7H-1,3,6,12a-tetraazabenzo[4,5]cyclohepta[1,2,3-de]naphthalen-5-yl]-5-ethynyl-6-fluoronaphthalen-2-ol] | 7.64 | 7.04
C#Cc1c(F)ccc2cc(O)cc(-c3nc4c5c(nc(OC[C@@]67CCCN6C[C@H](F)C7)nc5c3F)N3CCOCC[C@@H]3CC4)c12 [compound 25, 5-ethynyl-6-fluoro-4-[(8aS)-4-fluoro-2-{[(2R,7aS)-2-fluorotetrahydro-1H-pyrrolizin-7a(5H)-yl]methoxy}-8,8a,9,10,12,13-hexahydro-7H-11-oxa-1,3,6,13a-tetraazanaphtho[1,8-ab]heptalen-5-yl]naphthalen-2-ol] | 6.56 | 6.20
CCc1c(F)ccc2cc(O)cc(-c3nc4c5c(nc(OC[C@@]67CCCN6C[C@H](F)C7)nc5c3F)N3CCOCC[C@@H]3CC4)c12 [compound 26, 5-ethyl-6-fluoro-4-[(8aS)-4-fluoro-2-{[(2R,7aS)-2-fluorotetrahydro-1H-pyrrolizin-7a(5H)-yl]methoxy}-8,8a,9,10,12,13-hexahydro-7H-11-oxa-1,3,6,13a-tetraazanaphtho[1,8-ab]heptalen-5-yl]naphthalen-2-ol] | 6.49 | 6.25
C#Cc1c(F)ccc2cc(O)cc(-c3nc4c5c(nc(OC[C@@]67CCCN6C[C@H](F)C7)nc5c3F)N3CCCC[C@@H]3CC4)c12 [compound 27, 5-ethynyl-6-fluoro-4-[(8aR)-4-fluoro-2-{[(2R,7aS)-2-fluorotetrahydro-1H-pyrrolizin-7a(5H)-yl]methoxy}-8,8a,9,10,11,12-hexahydro-7H-1,3,6,12a-tetraazabenzo[4,5]cyclohepta[1,2,3-de]naphthalen-5-yl]naphthalen-2-ol] | 8.00 | 7.49
C#Cc1c(F)ccc2cc(O)cc(-c3nc4c5c(nc(OC[C@@]67CCCN6C[C@H](F)C7)nc5c3F)N3CCCCC3C(C#N)C4)c12 (stereo partly drawn) [compound 28, 5-(8-ethynyl-7-fluoro-3-hydroxynaphthalen-1-yl)-4-fluoro-2-{[(2R,7aS)-2-fluorotetrahydro-1H-pyrrolizin-7a(5H)-yl]methoxy}-8,8a,9,10,11,12-hexahydro-7H-1,3,6,12a-tetraazabenzo[4,5]cyclohepta[1,2,3-de]naphthalene-8-carbonitrile] | 7.21 | 6.10
C#Cc1c(F)ccc2cc(O)cc(-c3nc4c5c(nc(OC[C@@]67CCCN6C[C@H](F)C7)nc5c3F)N3CCCCC3C(O)C4)c12 (stereo partly drawn) [compound 29, 5-(8-ethynyl-7-fluoro-3-hydroxynaphthalen-1-yl)-4-fluoro-2-{[(2R,7aS)-2-fluorotetrahydro-1H-pyrrolizin-7a(5H)-yl]methoxy}-8,8a,9,10,11,12-hexahydro-7H-1,3,6,12a-tetraazabenzo[4,5]cyclohepta[1,2,3-de]naphthalen-8-ol] | 7.85 | 6.85
C#Cc1c(F)ccc2cc(O)cc(-c3nc4c5c(nc(OC[C@@]67CCCN6C[C@H](F)C7)nc5c3F)N3CCCCC3=C4C)c12 [compound 30, 5-ethynyl-6-fluoro-4-(4-fluoro-2-{[(2R,7aS)-2-fluorotetrahydro-1H-pyrrolizin-7a(5H)-yl]methoxy}-7-methyl-8,9,10,11-tetrahydropyrido[1,2-g]pyrimido[4,5,6-de][1,6]naphthyridin-5-yl)naphthalen-2-ol] | 6.09 | 5.76
CCc1c(F)ccc2cc(O)cc(-c3nc4c5c(nc(OC[C@@]67CCCN6C[C@H](F)C7)nc5c3F)N3CCCCC3C=C4)c12 (stereo partly drawn) [compound 31, 5-ethyl-6-fluoro-4-(4-fluoro-2-{[(2R,7aS)-2-fluorotetrahydro-1H-pyrrolizin-7a(5H)-yl]methoxy}-9,10,11,12-tetrahydro-8aH-1,3,6,12a-tetraazabenzo[4,5]cyclohepta[1,2,3-de]naphthalen-5-yl)naphthalen-2-ol] | 6.87 | 6.23
C=Cc1c(F)ccc2cc(O)cc(-c3nc4c5c(nc(OC[C@@]67CCCN6C[C@H](F)C7)nc5c3F)N3CCCCC3C(C#N)C4)c12 (stereo partly drawn) [compound 32, 5-(8-ethenyl-7-fluoro-3-hydroxynaphthalen-1-yl)-4-fluoro-2-{[(2R,7aS)-2-fluorotetrahydro-1H-pyrrolizin-7a(5H)-yl]methoxy}-8,8a,9,10,11,12-hexahydro-7H-1,3,6,12a-tetraazabenzo[4,5]cyclohepta[1,2,3-de]naphthalene-8-carbonitrile] | 6.34 | 5.69
